Literature values as cited in EP4378455A1, “A PHARMACEUTICAL FORMULATION COMPRISING EMPAGLIFLOZIN” (SANOVEL ILAC SANAYI VE TICARET A.S., priority 2022, dated 2024).

- solubility in acetonitrile (acetonitrile): slightly soluble
- solubility in ethanol (ethanol): slightly soluble
- solubility in methanol (methanol): sparingly soluble
- solubility in toluene (toluene): practically insoluble
- solubility in water (water (pH 1-7.4)): very slightly soluble
SMILES: OC[C@H]1O[C@@H](c2ccc(Cl)c(Cc3ccc(O[C@H]4CCOC4)cc3)c2)[C@H](O)[C@@H](O)[C@@H]1O [Empagliflozin, (1S)-1,5-anhydro-1-(4-chloro-3-{4-[(3S)-tetrahydrofuran-3-yloxy]benzyl}phenyl)-D-glucitol]
